# From US7799775B2, “Pyrimidine derivatives” (ASKA Pharmaceutical Co., Ltd., priority 2004, dated 2010)
# Experiments:
# 5-HT3 receptor = target: T1, 5-HT3 receptor (Rattus norvegicus, UniProt P35563); assay: Measurement of 5-HT3 receptor antagonistic action on rats (in vivo): inhibition of serotonin-induced bradycardia (BJ reflex); conditions: anesthetized SD male rats, serotonin 300 μg/kg 10 minutes later
# T1 construct: from tissue; host or cells: whole animal (SD male rats), serotonin-induced bradycardia
# T1 sequence (P35563 24-483): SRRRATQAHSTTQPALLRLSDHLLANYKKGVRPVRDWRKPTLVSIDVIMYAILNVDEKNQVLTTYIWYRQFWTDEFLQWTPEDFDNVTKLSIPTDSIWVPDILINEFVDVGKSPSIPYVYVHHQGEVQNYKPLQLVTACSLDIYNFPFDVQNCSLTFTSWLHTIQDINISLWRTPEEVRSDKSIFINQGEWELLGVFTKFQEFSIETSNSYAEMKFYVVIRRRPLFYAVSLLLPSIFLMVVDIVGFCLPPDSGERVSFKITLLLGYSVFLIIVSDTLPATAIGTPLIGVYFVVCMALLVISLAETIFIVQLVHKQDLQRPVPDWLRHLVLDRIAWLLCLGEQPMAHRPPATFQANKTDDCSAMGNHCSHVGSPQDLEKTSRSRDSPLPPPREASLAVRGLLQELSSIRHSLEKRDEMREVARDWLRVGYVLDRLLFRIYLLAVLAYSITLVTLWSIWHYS
# Protocol: (4) Measurement of 5-HT3 Receptor Antagonistic Action on Rats (in Vivo)
# SD male rats (weighing 270-410 g) were anesthetized by peritoneal administration of 1.25 g/kg of urethane (as dissolved in distilled water), and then catheters for measuring blood pressure and heart rate were inserted into their left carotid artery and a catheter for administration of test compound was inserted into their […]. After their blood pressure and heart rate were stabilized, 300 μg/kg of 5-hydroxytryptamine creatinine sulfate (serotonin) was rapidly intravenously administered and thereby induced transient bradycardiac reaction (BC 1) was observed. When the blood pressure and heart rate were re-stabilized after the serotonic administration, the test compounds were intravenously administered to the rats. Ten minutes thereafter, 300 μg/kg of serotonin was once again rapidly intravenously administered and thereby induced transient bradycardiac reaction (BC 2) was observed. Percent inhibition of bradycardia manifestation of each test compound, i.e., BJ reflex inhibition, can be calculated according to the following expression: […]
# 5-HT1A receptor = target: T2, 5-HT1A receptor (Rattus norvegicus, UniProt P19327); assay: Measurement of 5-HT1A receptor agonistic action on rats (in vivo): lower lip retraction and flat body posture; conditions: SD male rats, 10 mg/kg intraperitoneal; maximum of group evaluation points, 4 grades 0-3, observed 5-30 min after administration
# T2 construct: from tissue; host or cells: whole animal (SD male rats), behavioural read-out
# T2 sequence (P19327 1-422): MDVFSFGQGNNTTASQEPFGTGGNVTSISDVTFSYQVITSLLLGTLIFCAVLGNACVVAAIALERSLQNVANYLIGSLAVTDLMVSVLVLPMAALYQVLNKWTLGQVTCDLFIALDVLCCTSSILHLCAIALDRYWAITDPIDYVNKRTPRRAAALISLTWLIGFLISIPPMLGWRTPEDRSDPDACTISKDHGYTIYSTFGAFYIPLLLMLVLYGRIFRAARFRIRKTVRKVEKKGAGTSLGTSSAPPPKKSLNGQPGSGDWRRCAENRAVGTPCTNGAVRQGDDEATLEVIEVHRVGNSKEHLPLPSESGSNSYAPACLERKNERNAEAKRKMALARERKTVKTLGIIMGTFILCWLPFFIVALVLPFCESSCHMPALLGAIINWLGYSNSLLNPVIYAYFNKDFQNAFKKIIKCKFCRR
# Protocol: (3) Measurement of 5-HT1A Receptor Agonistic Action on Rats (in Vivo):
# Seven weeks old SD male rats were divided into 4-5 rats per group which were accustomized to the experimental environments twice. A week after the second accustomization, the rats were put into a transparent plastic case, and 10 mg/kg of a test compound (as dissolved in 1N-hydrochloric acid and diluted with suitable amount of saline) was intraperitoneally administered thereto. Immediately before the administration and 5, 10, 20 and 30 minutes after the administration, behaviors of the rats were observed as to lower lip retraction (LLP) and flat body posture (FBP). The results were evaluated in 4 grades (0: no reaction, 1: feeble reaction, 2: medium reaction, 3: maximum reaction).
Structure (SMILES),"5-HT1A Receptor Agonistic Action on Rats, FBP (5-HT1A receptor)","5-HT1A Receptor Agonistic Action on Rats, LLR (5-HT1A receptor)",also measured
"c1cc2ccsc2c(N2CCN3CCC[C@H]3C2)n1 [Production Example 103, 7-((8aS)-octahydropyrrolo[1,2-a]pyrazin-2-yl)thieno[2,3-c]pyridine]",0.4,3.0,BC Inhibition (%) (5-HT3 receptor; dose 3.0 mg/kg intravenous): 57.6%
"Cc1ccc2ccnc(N3CCN(C)CC3)c2c1 [Production Example 47, 7-methyl-1-(4-methylpiperazin-1-yl)isoquinoline]",,,BC Inhibition (%) (5-HT3 receptor; dose 1.0 mg/kg intravenous): 89.9%
"c1cc2ccsc2c(N2CCN3CCC[C@@H]3C2)n1 [Production Example 108, 7-((8aR)-octahydropyrrolo[1,2-a]pyrazin-2-yl)thieno[2,3-c]pyridine]",0.4,2.4,
"COc1ccc2ccnc(N3CCNC(C)C3)c2c1 (stereo not drawn) [Production Example 38, 7-methoxy-1-(3-methylpiperazin-1-yl)isoquinoline]",,,BC Inhibition (%) (5-HT3 receptor; dose 1.0 mg/kg intravenous): 82.9%
"Nn1c(CCCCN2CCN(c3ccc4ccccc4n3)CC2)nc2ccccc2c1=O [Example 4-3, 3-amino-2-[4-(4-quinolin-2-ylpiperazin-1-yl)butyl]-3H-quinazolin-4-one]",1.8,1.8,BC Inhibition (%) (5-HT3 receptor; dose 1.0 mg/kg intravenous): 90.1%
"c1cc2sccc2c(N2CCN3CCC[C@H]3C2)n1 [Production Example 104, 4-((8aS)-octahydropyrrolo[1,2-a]pyrazin-2-yl)thieno[3,2-c]pyridine]",0.2,1.6,BC Inhibition (%) (5-HT3 receptor; dose 10.0 mg/kg intravenous): 46.1%
"Nn1c(CCCCN2CCN(c3ccc4ccccc4n3)CC2)nc2c(c1=O)CCCC2 [Example 4-1, 3-amino-2-[4-(4-quinolin-2-ylpiperazin-1-yl)butyl]-5,6,7,8-tetrahydro-3H-quinazolin-4-one]",1.8,1.5,BC Inhibition (%) (5-HT3 receptor; dose 0.1 mg/kg intravenous): 70.4%
"CCn1c(CCCCN2CCN(c3cc(C)c4ccccc4n3)CC2)nc2c(c1=O)CCCC2 [Example 7-7, 3-ethyl-2-[4-[4-(4-methylquinolin-2-yl)piperazin-1-yl]butyl]-5,6,7,8-tetrahydro-3H-quinazolin-4-one]",2.2,2.2,BC Inhibition (%) (5-HT3 receptor; dose 1.0 mg/kg intravenous): 85.4%
"Clc1ccc2ccnc(N3CCN4CCC[C@H]4C3)c2c1 [Production Example 73, 7-chloro-1-((8aS)-octahydropyrrolo[1,2-a]pyrazin-2-yl)isoquinoline]",2.2,2.4,BC Inhibition (%) (5-HT3 receptor; dose 0.01 mg/kg intravenous): 52.2%
"Clc1ccc2ccnc(N3CCNCC3)c2c1 [Production Example 49, 7-chloro-1-piperazin-1-ylisoquinoline]",1.8,2.2,BC Inhibition (%) (5-HT3 receptor; dose 1.0 mg/kg intravenous): 96.8%
"c1cc2ccoc2c(N2CCN3CCC[C@H]3C2)n1 [Production Example 102, 7-((8aS)-octahydropyrrolo[1,2-a]pyrazin-2-yl)furo[2,3-c]-pyridine]",3.0,3.0,BC Inhibition (%) (5-HT3 receptor; dose 3.0 mg/kg intravenous): 61.5%
"Cc1cc(N2CCN(CCCCc3nc4ccccc4c(=O)n3N)CC2)nc2ccccc12 [Example 4-4, 3-amino-2-[4-[4-(4-methylquinolin-2-yl)piperazin-1-yl]butyl]-3H-quinazolin-4-one]",2.6,2.8,BC Inhibition (%) (5-HT3 receptor; dose 0.1 mg/kg intravenous): 68.7%
"CN1CCN(c2nccc3ccsc23)CC1 [Production Example 6, 7-(4-methylpiperazin-1-yl)thieno[2,3-c]pyridine]",2.4,2.8,
"Cc1cc2c(N3CCN4CCC[C@H]4C3)nccc2s1 [Production Example 107, 4-((8aS)-octahydropyrrolo[1,2-a]pyrazin-2-yl)-2-methylthieno[3,2-c]-pyridine]",3.0,2.8,
"Nn1c(CCCCN2CCN(c3ccc4ccccc4n3)CC2)nc2ccsc2c1=O [Example 4-18, 3-amino-2-[4-(4-quinolin-2-ylpiperazin-1-yl)butyl]-3H-thieno[3,2-d]-pyrimidin-4-one]",2.8,2.2,BC Inhibition (%) (5-HT3 receptor; dose 0.1 mg/kg intravenous): 35.6%
"Nn1c(CCCCN2CCN(c3ccc4ccccc4n3)CC2)nc2cccc(Cl)c2c1=O [Example 4-25, 3-amino-5-chloro-2-[4-(4-quinolin-2-ylpiperazin-1-yl)butyl]-3H-quinazolin-4-one]",1.0,0.8,BC Inhibition (%) (5-HT3 receptor; dose 0.1 mg/kg intravenous): 49.1%
"Cn1c(CCCCN2CCN(c3ccc4ccccc4n3)CC2)nc2c(c1=O)CCCC2 [Example 7-1, 3-methyl-2-[4-(4-quinolin-2-ylpiperazin-1-yl)butyl]-5,6,7,8-tetrahydro-3H-quinazolin-4-one]",1.8,2.2,BC Inhibition (%) (5-HT3 receptor; dose 0.1 mg/kg intravenous): 90.3%
"Cn1c(CCCCN2CCN(c3ccc4ccccc4n3)CC2)nc2ccccc2c1=O [Example 7-20, 3-methyl-2-[4-(4-quinolin-2-ylpiperazin-1-yl)butyl]-3H-quinazolin-4-one]",1.8,1.6,BC Inhibition (%) (5-HT3 receptor; dose 0.01 mg/kg intravenous): 64.7%
"COc1ccc2ccnc(N3CCN4CCC[C@H]4C3)c2c1 [Production Example 72, 1-((8aS)-octahydropyrrolo[1,2-a]pyrazin-2-yl)-7-methoxyisoquinoline]",3.0,3.0,BC Inhibition (%) (5-HT3 receptor; dose 0.3 mg/kg intravenous): 72.5%
"CN1CCN(c2nccc3sccc23)CC1 [Production Example 8, 4-(4-methylpiperazin-1-yl)thieno[3,2-c]pyridine]",0.8,2.0,
"Cc1cc(N2CCN(CCCCc3nc4c(c(=O)n3C)CCCC4)CC2)nc2ccccc12 [Example 7-6, 3-methyl-2-[4-[4-(4-methylquinolin-2-yl)piperazin-1-yl]butyl]-5,6,7,8-tetrahydro-3H-quinazolin-4-one]",2.0,2.4,BC Inhibition (%) (5-HT3 receptor; dose 0.01 mg/kg intravenous): 58.5%
"CCn1c(CCCCN2CCN(c3ccc4ccccc4n3)CC2)nc2c(c1=O)CCCC2 [Example 7-2, 3-2-[4-(4-quinolin-2-ylpiperazin-1-yl)butyl]-5,6,7,8-tetrahydro-3H-quinazolin-4-one]",0.4,0.2,
